According to article PMC9615537 (Journal of Pharmaceutical Analysis, 2022):

Assay: Metabolic identification of PEP06 in vitro, all matrices together
Format: in vitro ADME
Settings: semi-quantitative, Table S3

## RGDRGDMHSHRDFQPVLH [M6]
  Relative abundance of metabolite (peak area vs parent): most abundant metabolite
